Results taken from US4603139A, “Bicycle compounds, processes for their preparation and pharmaceutical formulations containing compounds” (Burroughs Wellcome Co., priority 1981, dated 1986).
Values after ≈ are worked out from the molar mass of the structure shown. Where a name gives a salt, the structure may show the parent alone.

What was measured:
[1] = test system: right ventricular papillary muscle; test: in vitro inotropic activity (isolated right ventricular papillary muscle); type: cell-based, guinea-pig; details: 75% increase in basal contractile force (Fc), carazolol 5×10^-8 M present, 34° C., cumulative additions; for EC75: Cavia porcellus, read-out: Potency for 75% increase Fc lying within the range
Experimental: The heart was rapidly excised and washed with Krebs-Henesleit solution containing the β-adrenoceptor antagonist carazolol (5×10^-8 M) and gassed with 95% O2 : 5% CO2 at 34° C. The heat was transferred to a petri dish containing the same buffer kept at a constant temperature (34° C.) throughout the dissection. Fresh buffer was used for each dissection and washings were discarded after use. A single right ventricular papillary muscle was employed from each heart; the tendinous end ligated to a stainless steel hook and the lower end ligated and cut away from the ventricle wall and attached to a perspex clamp such that the tissue was in contact with a platimum punctate electrode. The stainless steel hook was suspended from a Grass FT.03 transducer which recorded isometric tension. The preparation was placed in a 20 ml pyrex organ bath containing buffer gassed with 95% O2 : 5% CO2 and maintained at 34° C. 500 mg loading tension was applied to the preparation. Stimulation was effected by rectangular pulses of Imsec duration at 1.5 Hz at 30% above the threshold voltage (1-5 volts) by a SRI stimulator. The transducer inputs were coupled to a potentiometric recording device by a 6-channel Grass transducer coupler. After 90 minutes, preparations unable to sustain uniform contractions beyond this period were rejected.

[2] = test system: anaesthetised, open-chest beagles; test: in vivo inotropic and vasodilatory activity; details: Canis lupus familiaris, bolus intravenous, 0.003-3.0 mg/kg; for ED50: increase in dp/dt of left ventricular pressure; for ED30: vasodilatory activity
Experimental: The compounds of Examples 1,2 and 21 were tested in comparison with amrinone and […]. […] This is accompanied by a dose-related increase in aortic blood flow, and a fall in systemic blood pressure (see Table below).

[3] = test system: myocardial β-adrenoceptors; details: Brutsaert et al 1982; Pouleur et al 1982; cited from earlier work
[4] = test system: myocardial phosphodiesterase; details: Diederan and Wiesenberger, 1981; cited from earlier work
[5] = test system: ADP-induced platelet aggregation; test: in vitro inhibition of platelet aggregation; type: cell-based, rhesus monkey; details: Macaca mulatta, 1 min, platelet-rich plasma, 37° C., read-out: ID50 (dose causing 50% inhibition of platelet aggregation)
Experimental: Blood was freshly collected into siliconized (Siloclad; Clay Adams) plastic (Sterlin Ltd.) tubes containing trisodium citrate (3.15%; 0.1 volume with 0.9 volume blood) and centrifuged (200 g for 15 min) at room temperature. The platelet-rich plasma (PRP) was withdrawn into plastic containers and kept at room temperature. Inhibition of platelet aggregation was determined in a Born-type aggregometer by incubating aliquots (0.5 ml) of the PRP for 1 min at 37° C. with or without compound A prior to addition of sufficient adenosine diphosphate (ADP). Dose-inhibition curves were constructed for each compound and the ID50 (dose causing 50% inhibition) was calculated as the dose required to reduce the aggregation to 50% of its control amplitude. The ID50 for compound A is 1 mg/ml (approximately).

[6] = test system: ADP-induced platelet aggregation; test: ex vivo inhibition of platelet aggregation; type: in vivo; details: Macaca mulatta, iv, anaesthetised rhesus monkey, read-out: effective dose causing 50% inhibition of aggregation
Experimental: Rhesus monkeys of both sexes (7.3-9 kg, body weight) were sedated with phencyclidine, subsequently anaesthetised with thiopentone and maintained with sodium pentobarbitone. Catheters were placed in the left femoral artery to record blood pressure and in the left femoral vein for administration of drugs. A further catheter was placed in the contralateral femoral artery for the removal of blood samples. Heart rate was recorded from ECG (standard lead II). A left ventricular catheter was introduced via the left carotid artery to measure left ventricular pressure. […] Rectal temperature of the anaesthetised monkey was maintained at 37°-38° C. via a heated table-pad.
Blood samples (3 ml) were withdrawn into syringes containing trisodium citrate (0.315% w/v final concentration), and spun for […]. The platelet rich-plasma was transferred to a Born-type aggregometer and incubated for 1 min (at 37° C.) prior to the addition of sufficient ADP to induce sub-maximal (1.5-3 μM) or near maximal (8-12 μM) aggregation. Inhibition of aggregation was calculated with reference to at least 2 control samples prior to intravenous infusion of compound A. The sequence of administration of compound A was randomized between experiments. The effective dose of compound A which caused 50% inhibition of aggregation is 1.0 mg/kg i.v. (approximately).

myocardial injury = myocardial injury following selective ligation of the coronary artery in vivo
ischaemic heart = test: ventricular vulnerability to arrythmias in the ischaemic heart; type: in vivo
phosphodiesterase = phosphodiesterase inhibitory activity; type: biochemical; details: 100 μM, 1 mM and 10 mM; 3H-cAMP 5 uM; guinea pig heart homogenate; 37° C., 30 minutes
Experimental: The determination of phosphodiesterase inhibitory activity was effected by a procedure based on that of Thompson and Appleman (Biochme., 10, 311 (1971)). ^3 H-cAMP (5 uM) is incubated at 37° C. for 30 minutes with the 1000Xg supernatent of a 10% (w/v) homogenate of guinea pig heart in 50 mM-Tris/HCL pH7+5 mM-mgCI2 in either the presence or the absence of the compound of Example 21 which, in the former case, is dissolved in Tris buffer to give final concentrations of 100 uM, 1 mM and 10 mM. Phosphodiesterase enzyme in the homogenate hydrolyses ^3 H-cAMP to ^3 H-5'-AMP which is further converted to ^3 H-adenosine by a 5'-nucleotidase added to the incubation mixture. After a period of incubation unchanged ^3 H-cAMP is removed by adding ion exchange resin to the mixture and centrifuging. The ^3 H in the supernatent is assayed by liquid scintillation counting and gives a quantitative measure of adenosine formation (i.e. cAMP hydrolysis). Comparison of the ^3 H-adenosine formed in the presence and absence of test compound gives a measure of the PDE-inhibitory activity of the compound.

## COc1ccc(-c2nc3ccncc3n2C)c(OC)c1 [Example 40, 3-Methyl-2-(2,4-dimethoxyphenyl)-1H-imidazo[4,5-c]pyridine]
[1]
  EC75: > 1000 µM

## COc1cc(Cl)ccc1-c1nc2cnccc2[nH]1 [Example 10, 2-(2-methoxy-4-chlorophenyl)-1H-imidazo[4,5-c]pyridine hydrochloride]
[1]
  EC75: 10 to 100 µM

## COc1ccc(-c2nc3cnccc3n2C)c(OC)c1 [Example 41, 1-Methyl-2-(2,4-dimethoxyphenyl)-1H-imidazo[4,5-c]pyridine]
[1]
  EC75: > 1000 µM

## 2-(2-methylsulphinyl)-1H-imidazo[4,5-c]pyridine hydrochloride [Example 50]
[1]
  Potency for 75% increase Fc lying within the range: > 10^-3 M

## COc1cc(-c2nc3cnccc3[nH]2)cc(OC)c1OC [Example 3, 2-(3,4,5-trimethoxyphenyl)-1H-imidazo[4,5-c]pyridine dihydrochloride]
[1]
  EC75: > 1000 µM

## COc1ccc(-c2nc3cnccc3[nH]2)c(OC)c1 [Example 1, 2-(2,4-Dimethoxyphenyl)-1H-imidazo[4,5-c]pyridine]
[1]
  EC75: 100 to 1000 µM
[2]
  ED50: 0.13 mg/kg
  ED30: 0.24 mg/kg

## COc1ccc(-c2nc3c[n+]([O-])ccc3[nH]2)c(OC)c1 [Example 38, 2-(2,4-Dimethoxyphenyl)-1H-imidazo[4,5-c]pyridineN^5-oxide hydrate]
[1]
  EC75: > 1000 µM

## COc1cc(S(C)(=O)=O)ccc1-c1nc2cnccc2[nH]1 [Example 32, 2-(2-Methoxy-4-methylsulphonylphenyl)-1H-imidazo[4,5-c]pyridine]
[1]
  EC75: 100 to 1000 µM

## Nc1cc(-c2ccncc2)c[nH]c1=O [Amrinone, reference compound]
[2]
  ED50: 1 mg/kg
  ED30: 2 mg/kg

## COc1cc([S+](C)[O-])ccc1-c1nc2cnccc2[nH]1.Cl (stereo not drawn) [Example 23, 2-(2-Methoxy-4-methylsulphinylphenyl)-1H-imidazo[4,5-c]pyridine hydrochloride]
[1]
  Potency for 75% increase Fc lying within the range: 10^-4 -10^-3 M

## COc1cc([S+](C)[O-])ccc1-c1nc2ncccc2[nH]1 (stereo not drawn) [Vardax, 2-[(2-methoxy-4-methylsulphinyl)phenyl]-1H-imidazo[4,5-b]pyridine, reference compound]
[3]
  contribution of myocardial β-adrenoceptor stimulation to positive inotropic stimulation: at least part of the positive inotropic stimulation
[2]
  ED50: 1 mg/kg
  ED30: 2.11 mg/kg
[4]
  inhibition of myocardial phosphodiesterase: effective inhibitor of myocardial phosphodiesterase

## CSc1ccccc1-c1nc2cnccc2[nH]1 [Example 29, 2-(2-methylthiophenyl)-1H-imidazo[4,5-c]pyridine hydrochloride]
[1]
  EC75: 100 to 1000 µM

## COc1ccc(-c2nc3cnccc3[nH]2)cc1SC [Example 34, 2-(3-Methylthio-4-methoxyphenyl)-1H-imidazo-[4,5-c]pyridine dihydrochloride]
[1]
  EC75: 100 to 1000 µM

## COc1ccc(-c2nc3cnccc3[nH]2)cc1.Cl.Cl [Example 2, 2-(4-Methoxyphenyl)-1H-imidazo[4,5-c]pyridine dihydrochloride]
[2]
  ED50: 2 mg/kg
  ED30: 5.1 mg/kg

## COc1ccc(-c2nc3cnccc3[nH]2)cc1OC [Example 8, 2-(3,4-dimethoxyphenyl)-1H-imidazo[4,5-c]pyridine dihydrochloride]
[1]
  EC75: 10 to 100 µM

## COc1ccc(-c2nc3cnccc3[nH]2)c([S+](C)[O-])c1 (stereo not drawn) [Example 22, 2-(2-Methylsulphinyl-4-methoxyphenyl)-1H-imidazo[4,5-c]pyridine hydrochloride]
[1]
  EC75: > 1000 µM

## COc1ccc(-c2nc3cnccc3[nH]2)cc1[S+](C)[O-] (stereo not drawn) [Example 35, 2-(3-Methylsulphinyl-4-methoxyphenyl)-1H-imidazo[4,5-c]pyridine]
[1]
  EC75: > 1000 µM

## COc1ccccc1-c1nc2cnccc2[nH]1 [Example 7, 2-(2-methoxyphenyl)-1H-imidazo[4,5-c]pyridine hydrochloride]
[1]
  EC75: 100 to 1000 µM

## COc1cc([S+](C)[O-])ccc1-c1nc2cnccc2[nH]1 (stereo not drawn) [Example 21, 2-(2-Methoxy-4-methylsulphinylphenyl)-1H-imidazo[4,5-c]pyridine]
[5]
  IC50: ~1000 µg/mL (≈ 3.48 mM)
[1]
  EC75: 100 to 1000 µM
[6]
  ED50: ~1 mg/kg
Myocardial injury
  effect on myocardial injury: does not exacerbate myocardial injury
Ischaemic heart
  effect on ventricular vulnerability to arrythmias: does not increase ventricular vulnerability to arrythmias
[2]
  ED50: 0.063 mg/kg
  ED30: 0.19 mg/kg
phosphodiesterase
  PDE inhibitory activity: no PDE inhibitory activity
